Source: patent US20260152777A1, “METHOD FOR PRODUCING EPIGALLOCATECHIN GALLATE MONOGLUCOSIDE” (GIVAUDAN SA, priority 2022, published 2026)
“Also recorded” adds a separate entry of the source.

Key:
[1] = tested on: Asian volunteers with dull skin and large senescence spots; test: Clinical study: ultrasound measurement of dermis density using DUB SkinScanner; assay type: in vivo, human; settings: for Dermis density Mean +/− SD / Dermis density change vs D 0: cream with 2% ascorbic acid, hemiface, Asian women
Text: For this study, volunteers applied the cream twice a day for 56 days.
GLYCOL, DIMETHICONE, FRAGRANCE
Volunteers were divided into two groups as follows: • Group 1: 20 Asian women testing the active cream in comparison to the placebo cream with an average age of 54±5 years. • Group 2: 18 Asian women testing the vitamin C cream in comparison to the placebo cream with an average age of 53±8 years.
Volunteers applied a cream containing 0.4% of active, 2% of ascorbic acid (vitamin C), respectively, on one hemiface and a placebo cream on the other hemiface […] for 56 days.
During this study, a skin color and spots analysis was conducted using Colorface®, biomechanical properties were tested using Cutometery®, and the dermis thickness was determined using a DUB SkinScanner 75® probe (max. depth of 3.28 mm).
The DUB Skin Scanner system is a high-frequency, high-resolution ultrasound diagnostic tool for use in dermatology, cosmetics and pharmaceuticals and clinical research. 75 MHz ultrasound is a popular method for non-invasive skin analysis. High frequency ultrasound (75 MHz) can explore the superficial layers of the skin and can penetrate up to 3 mm into the skin. Skin ultrasound is based on the population of ultrasound in the skin and on the direction and measurement of the amplitudes of the part reflected by the interfaces separating two media having different characteristics of acoustic waves. An ultrasound imaging technique used for the visualization of the structure of the subcutaneous body allows the evaluation of the homogeneity of the skin, including the density and the skin thickness.
Three measurements of thickness and density were taken to obtain an average for each image.
For this study, the analysis of the density of the dermis was carried out on D0, D28 and D56.

[2] = tested on: Normal Human Epidermal Keratinocytes (NHEKs); test: Antioxidant activity: ROS production in keratinocytes stressed with TBP (DCFH-DA probe); assay type: cell-based; settings: at 0.1%; TBP column = 100, Untreated = 27.5
Experimental: A 96 wells-plate was coated with a collagen I solution at 50 μg/ml. Normal Human Epidermal Keratinocytes (NHEKs) were seeded at 20′000 cells per well with four replicates. Cells were incubated for 24 hours in complete medium (Epilife, Gibco) supplemented with Human keratinocyte growth supplements (HKGS) factor (Gibco) and 1% antibiotics (Sigma) at 37° C. with 5% CO2. […] The evolution of the fluorescence was followed for 1 hour.

[3] = Skin penetration by Raman spectroscopy (ex vivo); assay type: in vitro ADME, human
Experimental: At the end of the incubation period, the skin explants were frozen in Optimal Cutting Temperature (OCT; VWR) at −80° C. and then cut longitudinally using a cryotome with a thickness of 20 μm. For each explant, 3 tissue sections were selected and deposited on a CaF2 support for Raman imaging analysis. The processing of corrected data maps was performed by using a software based on least squares fitting method that operates in the Matlab environment. This method involves mathematical modeling of reference spectra in the overall spectral image to determine the contribution and distribution of these spectra within the image. The reference spectra were the modelled spectra of the following products: Aglycone, glucoside mixture, 4′-O-α-monoglucoside and untreated skin control.

melanogenesis pathway = settings: 0.01% (v/v), 24 h, NHEK-NHEM co-culture, normalized to B2M
Experimental: To evaluate the impact of preparation of the present invention on melanogenesis, a co-culture study with keratinocytes and melanocytes was conducted.
The cell culture was realized with primary cells isolated from biopsies. Cells were co-cultured with a ratio of 10 keratinocytes to 1 melanocyte. Both cell types were derived from a donor.
The product EGCG MONOG 0.01% was filtered and diluted in Keratinocyte Growth Medium 2 (supplied by Promocell).
Cells were seeded in 6-well plates in the presence of the Keratinocyte Growth Medium 2 for 24 h. After seeding, a treatment in the presence of EGCG MONOG 0.01% was applied for 24 h. Untreated wells were used as a basal reference in order to compare the impact of EGCG MONOG and gene expression after 24 h of incubation.
After treatment, the RNA from the cells were extracted using TRIzol™ (available from Sigma) and reverse-transcribed into cDNA. The cDNA was mixed with different primers of interest representative of the melanogenesis pathway (PrimePCR custom plate, pigmentation, Biorad). The expression of the mRNA was measured by semi-quantitative PCR on a Bio-Rad CFX96Real Time PCR System (available from BioRAD). The expression level of the mRNA was calculated and normalized with reference gene (B2M).
The values were reported relative to the untreated control to express an activating or inhibitory effect.

[4] = tested on: female volunteers with a dark skin type (phototype IV or more) and dull skin; test: Clinical evaluation on African skin: skin color by Chromameter L* parameter; assay type: in vivo, human; settings: cream 0.4%, full face twice daily; for increase of L* on uneven skin tone area: dark skin type
Experimental: The clinical study was carried out on 85 female volunteers aged from 19 to 47 years, which were divided in three groups: active, placebo and aglycone. The study was performed in South Africa on female volunteers with a dark skin type (phototype IV or more) and dull skin. All participants provided signed informed consent at the beginning of the study. The study was conducted according to the guidelines of the Declaration of Helsinki. […] Skin color evolution was measured after 14, 28 and 56 days using L* parameter measurement by Chromameter®.
The skin color was evaluated by means of a Chromameter CR400, which measures skin color, and the parameter L* (lightness) was recorded. The greater the value, the lighter the skin color. Depending on the test type, at least three or at least 15 readings were taken at each test sub-site for each time interval to serve as the specific pigmentation sport color measurement component of the study. Skin color was analyzed at D0, D14, D28 and D56.
For all studies in vivo, a Shapiro Wilk test was used to verify whether the raw data followed the Gaussian Law. In case of Normally-distributed data, the mean values were compared using either an unpaired or paired t student test. In case of non-Normally-distributed data, a Wilcoxon (paired) and Kruskal-Wallis test followed by a Mann-Whitney U (unpaired) test were used for paired data and unpaired data, respectively.

For O=C1O[C@H]([C@@H](O)CO)C(O)=C1O [Ascorbic acid, ascorbic acid], the “Dermis density Mean +/− SD” value ([1]; D 0 (baseline)) was 37.7 ± 8.1 arbitrary unit, the “Dermis density Mean +/− SD” value ([1]; D 28) was 39.1 ± 8.3 arbitrary unit and the “Dermis density change vs D 0” value ([1]; D 28) was “+3.8%”. The “Dermis density Mean +/− SD” value ([1]; D 56) was 40.7 ± 9.2 arbitrary unit and the “Dermis density change vs D 0” value ([1]; D 56) was “+7.2%”.

In the case of O=C(O[C@@H]1Cc2c(O)cc(O)cc2O[C@@H]1c1cc(O)c(O[C@H]2O[C@H](CO)[C@@H](O)[C@H](O)[C@H]2O)c(O)c1)c1cc(O)c(O)c(O)c1 [epigallocatechin gallate 4′-O-α-monoglucoside], the “ROS, Mean (% of untreated)” value [2] is reported as 33.75 % of untreated, the “skin penetration higher than that of the aglycone” value ([3]; 2%, 8 hours of topical application, skin explants, relative to aglycone) is reported as “+90%” and the “skin penetration higher than that of the glucoside mixture” value ([3]; 2%, 8 hours of topical application, skin explants, relative to glucoside mixture) is reported as “+20%”. For the same compound, the “quantity accumulated in the skin relative to the aglycone” value ([3]; at depth of about 65 µm) was “almost double that of the aglycone”, the “bioavailability in the skin” value ([3]; compared to aglycone (and glucoside mixture)) was “better skin bioavailability than the aglycone and the glucoside mixture; also recorded: much higher bioavailability in the skin than the respective aglycones” and the “depth of accumulation in the skin / skin penetration depth” value ([3]; skin explants, Raman) was “about 65 µm”. For the same compound, the “AP3B1 mRNA expression vs untreated co-culture” value (melanogenesis pathway) was −59%, the “DTNBP1 mRNA expression vs untreated co-culture” value (melanogenesis pathway) was −59% and the “EDNRB mRNA expression vs untreated co-culture” value (melanogenesis pathway) was −68%. For the same compound, the “F2RL1 mRNA expression vs untreated co-culture” value (melanogenesis pathway) was −49%, the “KIT mRNA expression vs untreated co-culture” value (melanogenesis pathway) was −93% and the “LYST mRNA expression vs untreated co-culture” value (melanogenesis pathway) was −48%. The “MC1R mRNA expression vs untreated co-culture” value (melanogenesis pathway) was −96%, the “MITF mRNA expression vs untreated co-culture” value (melanogenesis pathway) was −108% and the “PMEL mRNA expression vs untreated co-culture” value (melanogenesis pathway) was −212%. For the same compound, the “SOX10 mRNA expression vs untreated co-culture” value (melanogenesis pathway) was −60%, the “TYR mRNA expression vs untreated co-culture” value (melanogenesis pathway) was −58% and the “increase of the dermis density” value ([1]; summary statement, clinical evaluation on Asian volunteers) was “up to 16.6%”. The “increase of L*, global skin color, 15 measurements on hemi face” value ([4]; dark skin type, 14, 28 and 56 days) was “up to +6.8%”, the “increase of L* on uneven skin tone area” value ([4]; after 14 days) was “+1.3%” and the “increase of L* on uneven skin tone area” value ([4]; after 28 days) was “+4.7%”. For the same compound, the “increase of L* on uneven skin tone area” value ([4]; after 56 days) was “+6.3%”.
